Test results as given in patent US4864023A, “Pyrido(3,2,1-IJ)-1,3,4-benzoxadiazine derivatives” (priority 1988, dated 1989).
In brackets after ≈: the same amount, converted by molar mass.

Columns and labels:
Assay in all cases: in vitro antibacterial activity, standard agar dilution method
Format in all cases: cell-based
[1] = tested on: Bacillus subtilis PCI 219; details: PCI219, aerobic, read-out: minimum inhibitory concentration (MIC)
[2] = tested on: Staphylococcus aureus FDA 209P JC-1; details: FDA209P; Staphylococcus aureus FDA 209P JC-1; aerobic; agar dilution; read-out: minimum inhibitory concentration (MIC)
[3] = tested on: Staphylococcus aureus NR 2855; details: NR2855; Staphylococcus aureus NR 2855; aerobic; agar dilution; read-out: minimum inhibitory concentration (MIC)
[4] = tested on: Staphylococcus aureus Smith; details: Staphylococcus aureus Smith; aerobic; agar dilution; read-out: minimum inhibitory concentration (MIC)
[5] = tested on: Staphylococcus epidermidis IFO 12993; details: IFO12993, aerobic, read-out: minimum inhibitory concentration (MIC)
[6] = tested on: Staphylococcus epidermidis NR 2942; details: NR2942, aerobic, read-out: minimum inhibitory concentration (MIC)
[7] = tested on: Enterococcus faecalis NR 2943; details: NR2943, aerobic, read-out: minimum inhibitory concentration (MIC)
[8] = tested on: Alcaligenes faecalis IFO 13111; details: IFO13111, aerobic, read-out: minimum inhibitory concentration (MIC)
[9] = tested on: Citrobacter freundii IFO 12681; details: IFO12681, aerobic, read-out: minimum inhibitory concentration (MIC)
[10] = tested on: Enterobacter aerogenes NR 2945; details: Klebsiella aerogenes, NR2945, aerobic, read-out: minimum inhibitory concentration (MIC)
[11] = tested on: Enterobacter cloacae NR 2946; details: NR2946, aerobic, read-out: minimum inhibitory concentration (MIC)
[12] = tested on: Escherichia coli NIHJ JC-2; details: NIHJJC2, aerobic, read-out: minimum inhibitory concentration (MIC)
Escherichia coli NR 2630 = details: NR2630; Escherichia coli NR 2630; aerobic; agar dilution; read-out: minimum inhibitory concentration (MIC)
[13] = tested on: Klebsiella pneumoniae FDA PCI 602; details: FDAPCI602, aerobic, read-out: minimum inhibitory concentration (MIC)
[14] = tested on: Bordetella bronchiseptica ATCC 4617; details: ATCC4617, aerobic, read-out: minimum inhibitory concentration (MIC)
[15] = tested on: Proteus rettgeri ATCC 14505; details: Providencia rettgeri, ATCC14505, aerobic, read-out: minimum inhibitory concentration (MIC)
[16] = tested on: Proteus vulgaris OX19 ATCC 6898; details: ATCC6898, aerobic, read-out: minimum inhibitory concentration (MIC)
[17] = tested on: Pseudomonas aeruginosa A3; details: aerobic, read-out: minimum inhibitory concentration (MIC)
[18] = tested on: Pseudomonas aeruginosa NR 2950; details: NR2950, aerobic, read-out: minimum inhibitory concentration (MIC)
[19] = tested on: Serratia marcescens IFO 12648; details: IFO12648, aerobic, read-out: minimum inhibitory concentration (MIC)
[20] = tested on: Salmonella typhimurium IFO 12529; details: Salmonella enterica, aerobic, read-out: minimum inhibitory concentration (MIC)

| SMILES | MIC [1] [µg/mL] | MIC [2] [µg/mL] | MIC [3] [µg/mL] | MIC [4] [µg/mL] | MIC [5] [µg/mL] | MIC [6] [µg/mL] | MIC [7] [µg/mL] | MIC [8] [µg/mL] | MIC [9] [µg/mL] | MIC [10] [µg/mL] | MIC [11] [µg/mL] | MIC [12] [µg/mL] | MIC (Escherichia coli NR 2630) [µg/mL] | MIC [13] [µg/mL] | MIC [14] [µg/mL] | MIC [15] [µg/mL] | MIC [16] [µg/mL] | MIC [17] [µg/mL] | MIC [18] [µg/mL] | MIC [19] [µg/mL] | also measured |
| --- | --- | --- | --- | --- | --- | --- | --- | --- | --- | --- | --- | --- | --- | --- | --- | --- | --- | --- | --- | --- | --- |
| CN1COc2c(N3CCN(CC(=O)c4ccccc4)CC3)c(F)cc3c(=O)c(C(=O)O)cn1c23 [Example 41] | 3.13 (≈ 6.71 µM) | 6.25 (≈ 13.4 µM) | 6.25 (≈ 13.4 µM) | 6.25 (≈ 13.4 µM) | 6.25 (≈ 13.4 µM) | 12.5 (≈ 26.8 µM) | 100 (≈ 214 µM) | 50 (≈ 107 µM) | 0.39 (≈ 0.836 µM) | 0.1 (≈ 0.214 µM) | 0.78 (≈ 1.67 µM) | 0.78 (≈ 1.67 µM) | 0.39 (≈ 0.836 µM) | 3.13 (≈ 6.71 µM) | 25 (≈ 53.6 µM) | 3.13 (≈ 6.71 µM) | 1.56 (≈ 3.34 µM) | 3.13 (≈ 6.71 µM) | 12.5 (≈ 26.8 µM) | 3.13 (≈ 6.71 µM) | MIC [20]: 0.78 µg/mL (≈ 1.67 µM) |
| CC(=O)CN1CCN(c2c(F)cc3c(=O)c(C(=O)O)cn4c3c2OCN4C)CC1 [Example 40, 9-fluoro-3-methyl-7-oxo-10-[4-(2-oxo-n-propyl)-1-piperazinyl]-2,3-dihydro-7H-pyrido[3,2,1-ij]-1,3,4-benzoxadiazine-6-carboxylic acid] | 0.1 (≈ 0.247 µM) | 1.56 (≈ 3.86 µM) | 0.78 (≈ 1.93 µM) | 0.78 (≈ 1.93 µM) | 1.56 (≈ 3.86 µM) | 0.78 (≈ 1.93 µM) | 12.5 (≈ 30.9 µM) | 6.25 (≈ 15.5 µM) | 0.2 (≈ 0.495 µM) | 0.1 (≈ 0.247 µM) | 0.39 (≈ 0.964 µM) | 0.39 (≈ 0.964 µM) | 0.2 (≈ 0.495 µM) | 1.56 (≈ 3.86 µM) | 1.56 (≈ 3.86 µM) | 3.13 (≈ 7.74 µM) | 0.2 (≈ 0.495 µM) | 1.56 (≈ 3.86 µM) | 12.5 (≈ 30.9 µM) | 1.56 (≈ 3.86 µM) | MIC [20]: 0.39 µg/mL (≈ 0.964 µM) |
| CCCN1CCN(c2c(F)cc3c(=O)c(C(=O)O)cn4c3c2OCN4C)CC1 [Example 43] | 0.1 (≈ 0.256 µM) | 0.78 (≈ 2 µM) | 0.78 (≈ 2 µM) | 0.39 (≈ 0.999 µM) | 0.39 (≈ 0.999 µM) | 0.39 (≈ 0.999 µM) | 6.25 (≈ 16 µM) | 0.78 (≈ 2 µM) | 0.1 (≈ 0.256 µM) | 0.1 (≈ 0.256 µM) | 0.1 (≈ 0.256 µM) | 0.1 (≈ 0.256 µM) | 0.05 (≈ 0.128 µM) | 0.39 (≈ 0.999 µM) | 0.39 (≈ 0.999 µM) | 0.78 (≈ 2 µM) | 0.1 (≈ 0.256 µM) | 0.78 (≈ 2 µM) | 6.25 (≈ 16 µM) | 0.2 (≈ 0.512 µM) | MIC [20]: 0.1 µg/mL (≈ 0.256 µM) |
| CN1COc2c(N3CCC(N)CC3)c(F)cc3c(=O)c(C(=O)O)cn1c23 [Example 33] | 0.2 (≈ 0.552 µM) | 0.2 (≈ 0.552 µM) | 1.56 (≈ 4.31 µM) | 0.2 (≈ 0.552 µM) | 0.78 (≈ 2.15 µM) | 0.78 (≈ 2.15 µM) | 3.13 (≈ 8.64 µM) | 50 (≈ 138 µM) | 0.2 (≈ 0.552 µM) | 0.05 (≈ 0.138 µM) | 0.2 (≈ 0.552 µM) | 0.2 (≈ 0.552 µM) | 0.1 (≈ 0.276 µM) | 0.78 (≈ 2.15 µM) | 25 (≈ 69 µM) | 1.56 (≈ 4.31 µM) | 0.05 (≈ 0.138 µM) | 0.39 (≈ 1.08 µM) | 6.25 (≈ 17.2 µM) | 0.78 (≈ 2.15 µM) | MIC [20]: 0.1 µg/mL (≈ 0.276 µM) |
| CN1COc2c(N3CCN(C(=O)CCC(=O)O)CC3)c(F)cc3c(=O)c(C(=O)O)cn1c23 [Example 49, 10-[4-(3-carboxypropionyl)-1-piperazinyl]-9-fluoro-3-methyl-7-oxo-2,3-dihydro-7H-pyrido[3,2,1-ij]-1,3,4-benzoxadiazine-6-carboxylic acid] | 3.13 (≈ 6.98 µM) | 6.25 (≈ 13.9 µM) | 12.5 (≈ 27.9 µM) | 6.25 (≈ 13.9 µM) | 12.5 (≈ 27.9 µM) | 12.5 (≈ 27.9 µM) | 100 (≈ 223 µM) | 100 (≈ 223 µM) | 0.39 (≈ 0.87 µM) | 0.39 (≈ 0.87 µM) | 0.78 (≈ 1.74 µM) | 1.56 (≈ 3.48 µM) | 0.39 (≈ 0.87 µM) | 1.56 (≈ 3.48 µM) | 50 (≈ 112 µM) | 3.13 (≈ 6.98 µM) | 0.78 (≈ 1.74 µM) | 3.13 (≈ 6.98 µM) | 50 (≈ 112 µM) | 3.13 (≈ 6.98 µM) | MIC [20]: 0.39 µg/mL (≈ 0.87 µM) |
